Results published in article PMC9010763 (The Journal of Biological Chemistry, 2022).
Read-outs that look alike come from different tables or passages of the source.

Tests used:
Format in all cases: biochemical
[1] = target: T1, SLC35B1 (Homo sapiens, UniProt P78383); experiment: [α^[…]]ATP uptake competition and counter-exchange, purified protein in PC-liposomes
T1 construct: isoform 1, C-terminal GFP fusion (hSLC35B1-GFP)
T1 sequence (P78383 1-322): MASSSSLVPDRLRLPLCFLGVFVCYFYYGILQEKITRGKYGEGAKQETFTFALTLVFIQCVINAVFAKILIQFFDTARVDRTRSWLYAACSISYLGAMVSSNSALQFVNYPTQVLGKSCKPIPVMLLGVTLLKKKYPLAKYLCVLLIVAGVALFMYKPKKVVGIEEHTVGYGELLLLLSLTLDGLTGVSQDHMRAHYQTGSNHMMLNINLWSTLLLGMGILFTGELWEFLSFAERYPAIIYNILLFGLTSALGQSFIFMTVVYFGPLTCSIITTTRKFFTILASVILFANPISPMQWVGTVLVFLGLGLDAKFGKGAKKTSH

[2] = target: T1, SLC35B1; experiment: inhibition of [α^[…]]ATP uptake at […], purified protein in PC-liposomes; settings: read-out: % inhibition at 1 mM
[3] = target: T1, SLC35B1; experiment: inhibition of [α^[…]]ATP uptake at […]; counter-exchange and efflux, purified protein in PC-liposomes; settings: read-out: % inhibition at 1 mM
[4] = target: T1, SLC35B1; experiment: inhibition of [α^[…]]ATP uptake at […]; counter-exchange, purified protein in PC-liposomes; settings: read-out: % inhibition at 1 mM

Nc1ncnc2c1ncn2[C@@H]1O[C@H](COP(=O)(O)OP(=O)(O)O)[C@@H](O)[C@H]1O [ADP] was tested, and the Ki ([1]; read-out: Ki) was 56.1 µM.
With Nc1ncnc2c1ncn2[C@@H]1O[C@H](COP(=O)(O)OP(=O)(O)OP(O)(O)=S)[C@@H](O)[C@H]1O [ATPɣ[-S]] the inhibition at 1000 µM [2] was over 85%.
Nc1ccn([C@@H]2O[C@H](COP(=O)(O)OP(=O)(O)OP(=O)(O)O)[C@@H](O)[C@H]2O)c(=O)n1 [CTP] gave an inhibition at 1000 µM [3] of 50 to 60%.
Nc1nc2c(ncn2[C@@H]2O[C@H](COP(=O)(O)OP(=O)(O)O)[C@@H](O)[C@H]2O)c(=O)[nH]1 [GDP] showed an inhibition at 1000 µM [3] of 50 to 60%.
Work on Nc1nc2c(ncn2[C@@H]2O[C@H](COP(=O)(O)OP(=O)(O)OP(=O)(O)O)[C@@H](O)[C@H]2O)c(=O)[nH]1 [GTP] yielded a Ki ([1]; read-out: Ki) of 275 µM.
For O=c1ccn([C@@H]2O[C@H](COP(=O)(O)OP(=O)(O)O)[C@@H](O)[C@H]2O)c(=O)[nH]1 [UDP], the Ki [1] was 83 µM.
Work on O=c1ccn([C@@H]2O[C@H](COP(=O)(O)OP(=O)(O)OP(=O)(O)O)[C@@H](O)[C@H]2O)c(=O)[nH]1 [UTP] yielded an inhibition at 1000 µM [3] of 70 to 85%.
In the case of Nc1ncnc2c1ncn2[C@H]1C[C@H](O)[C@@H](COP(=O)(O)OP(=O)(O)OP(=O)(O)O)O1 [dATP], the inhibition at 1000 µM [4] is reported as over 85%.
